Assay results as given in paper PMC2763345 (PLoS Pathogens, 2009).
In brackets after ≈: the same amount, converted by molar mass. Like-named read-outs stand apart in the source and are kept apart here.

Experiments:
[1] = tested on: M. tuberculosis H37Rv-GFP in Raw264.7 macrophages; assay: microbe, parasite or virus in culture; type: cell-based, Mycobacterium tuberculosis; settings: for MIC: Mycobacterium tuberculosis, H37RV
[2] = tested on: M. tuberculosis H37Rv-GFP; assay: microbe, parasite or virus in culture; type: cell-based, Mycobacterium tuberculosis; settings: for MIC: Mycobacterium tuberculosis, H37RV
[3] = tested on: Staphylococcus aureus, S. epidermis, S. capitis, S. xylosus, Micrococcus luteus, Listeria innocua, Lactobacillus gallinarum, group G Streptococcus …; type: cell-based, Gram-positive bacteria
M. tuberculosis H37Rv [4] = type: cell-based
[5] = tested on: M. smegmatis mc2 155 Wild Type; assay: microbe, parasite or virus in culture; type: cell-based
[6] = tested on: Acinetobacter baumannii, Escherichia coli, Enterobacter cloacae, E. aerogenes, Klebsiella oxytoca, Pseudomonas aeruginosa, Salmonella enteridis, Vibrio mimicus; type: cell-based, Gram-negative bacteria
C. jeikeium = type: cell-based, Corynebacterium jeikeium
BCG Pasteur-Tokyo = type: cell-based, M. bovis BCG
M. tuberculosis H37Ra [7] = type: cell-based
M. smegmatis mc2 155 = type: cell-based
M. tuberculosis H37Ra [8] = type: cell-based; remark: listed apart in the source
M. tuberculosis H37Rv [9] = type: cell-based; remark: listed apart in the source
in vitro = settings: C57BL/6, mouse
C. striatum = type: cell-based, Corynebacterium striatum
BCG Wild Type = assay: microbe, parasite or virus in culture; type: cell-based, M. bovis BCG
[10] = tested on: M. tuberculosis H37Rv-GFP in mouse bone marrow-derived macrophages; type: cell-based, Mycobacterium tuberculosis
[11] = tested on: M. tuberculosis H37Rv-GFP in human primary macrophages; type: cell-based, Mycobacterium tuberculosis
[12] = tested on: Candida albicans, C. glabrata, C. parapsilosis; type: cell-based, Fungi
[13] = Mycolicibacterium smegmatis, MC2155
[14] = Mycobacterium tuberculosis variant bovis BCG, BCG
[15] = 120 h, read-out: Intracellular macrophage growth MIC (µM)
[16] = 120 h, read-out: Intracellular macrophage growth MIC (µg/mL)
[17] = read-out: In vitro broth growth MIC (µM)
[18] = read-out: In vitro broth growth MIC (µg/mL)

SMILES | MIC ([1]; read-out: MIC Intracellular) [µM] | MIC ([2]; read-out: MIC Extracellular) [µM] | MIC [1, 15] [µM] | MIC [1, 16] [µg/mL] | MIC [2, 17] [µM] | MIC [2, 18] [µg/mL] | Intracellular macrophage growth Cell toxicity (Raw264.7 macrophages; mouse) [µM] | further results
COc1ccc(O[C@H]2CCN(C(=O)c3cc([N+](=O)[O-])cc([N+](=O)[O-])c3)C2)cc1 [Compound 10-(S)] | 20 | 0.08 |  |  |  |  |  | 
O=C(NCCOCc1ccccc1F)c1cc([N+](=O)[O-])cc([N+](=O)[O-])c1 [Compound 5] | 0.2 | 0.08 |  |  |  |  |  | 
O=C(NCCOCc1cccc(Cl)c1)c1cc(NO)cc([N+](=O)[O-])c1 [Compound 3] | > 20 | > 20 |  |  |  |  |  | 
O=C(NCCOCc1cccc(Cl)c1)c1cc([N+](=O)[O-])cc([N+](=O)[O-])c1 [Compound 1] | 1 | 0.2 |  |  |  |  |  | 
O=C(NCCOCc1cccc(Cl)c1)c1cccc([N+](=O)[O-])c1 [Compound 4] | > 20 | > 20 |  |  |  |  |  | 
COc1ccc(OCCNC(=O)c2cc([N+](=O)[O-])cc([N+](=O)[O-])c2)cc1 [Compound 8, N-(2-(4-methoxyphenoxy)ethyl)-3,5-dinitrobenzamide] | 0.2 | 0.2 |  |  |  |  |  | Range of MICs for multiple strains [3]: > 250 µM; bactericidal effect on M. tuberculosis (M. tuberculosis H37Rv [4]): time-dependent; MIC [5, 13]: 0.15 µg/mL (≈ 0.415 µM); Range of MICs for multiple strains [6]: > 250 µM; Range of MICs for multiple strains (C. jeikeium): 2.7 µM; Range of MICs for multiple strains (BCG Pasteur-Tokyo): 0.2 µM; effect on the synthesis of the arabinan domains of arabinogalactan (AG) and lipoarabinomannan (LAM) (M. tuberculosis H37Ra [7]): clear-cut effect; effects on the biosynthesis of fatty acids, mycolic acids and/or other lipids (M. tuberculosis H37Ra [7]): no effects; Range of MICs for multiple strains (M. smegmatis mc2 155): 0.4 µM; Range of MICs for multiple strains (M. tuberculosis H37Ra [8]): 0.2 µM; Range of MICs for multiple strains (M. tuberculosis H37Rv [9]): 0.2 µM; IC50 (in vitro): 50 µM; Range of MICs for multiple strains (C. striatum): 27 µM; MIC (BCG Wild Type; [14]): 0.075 µg/mL (≈ 0.208 µM); decrease in the number of CFUs [10]: More than a ten-fold decrease; decrease in the number of CFUs [11]: More than a ten-fold decrease; Range of MICs for multiple strains [12]: > 250 µM
CC(=O)O[C@H]1C[C@@]2(C)[C@@H](C[C@@H](O)[C@H]3[C@@]4(C)CC[C@@H](O)[C@@H](C)[C@@H]4CC[C@@]32C)/C1=C(\CCC=C(C)C)C(=O)O [Fusidic Acid] |  |  | 20 | 10 | 1 | 0.5 | >20 | 
O=[N+]([O-])c1cn2c(n1)OC[C@@H](OCc1ccc(OC(F)(F)F)cc1)C2 [PA-824] |  |  | 0.22 | 0.08 | 0.22 | 0.08 | >20 | differences in MIC between the two assays (broth and intracellular) [1]: No major differences
CO[C@H]1/C=C/O[C@@]2(C)Oc3c(C)c(O)c4c(O)c(c(/C=N/N5CCN(C)CC5)c(O)c4c3C2=O)NC(=O)/C(C)=C\C=C\[C@H](C)[C@H](O)[C@@H](C)[C@@H](O)[C@@H](C)[C@H](OC(C)=O)[C@@H]1C [Rifampin] |  |  | 2.9 | 2.4 | 0.01 | 0.01 | 24 | MIC [5]: 0.31 µg/mL (≈ 0.377 µM); MIC (BCG Wild Type): 0.31 µg/mL (≈ 0.377 µM)
O=C(NCCOc1ccccc1F)c1cc([N+](=O)[O-])cc([N+](=O)[O-])c1 [Compound 9] | 0.7 | 0.2 |  |  |  |  |  | 
CC[C@@H](CO)NCCN[C@@H](CC)CO [Ethambutol] |  |  | 4.9 | 1 | 4.9 | 1 | >20 | differences in MIC between the two assays (broth and intracellular) [1]: No major differences
NC(=O)c1c(NC(=O)C2CC2)sc2c1CCCC2 [AX20017] |  |  |  |  |  |  |  | Intracellular macrophage growth MIC (µM) [1]: >20 µM; Intracellular macrophage growth MIC (µg/mL) [1]: >5 µg/mL; In vitro broth growth MIC (µM) [2]: >20 µM; In vitro broth growth MIC (µg/mL) [2]: >5 µg/mL; Intracellular macrophage growth Cell toxicity (Raw264.7 macrophages): >20 µM
O=C(NCCOCc1ccccc1)c1cc([N+](=O)[O-])cc([N+](=O)[O-])c1 [Compound 7, N-(2-(benzyloxy)ethyl)-3,5-dinitrobenzamide] | 0.2 | 0.2 |  |  |  |  |  | Range of MICs for multiple strains [3]: > 250 µM; bactericidal effect on M. tuberculosis (M. tuberculosis H37Rv [4]): time-dependent; MIC [5, 13]: 0.25 µg/mL (≈ 0.724 µM); Range of MICs for multiple strains [6]: > 250 µM; Range of MICs for multiple strains (C. jeikeium): 2.7 µM; Range of MICs for multiple strains (BCG Pasteur-Tokyo): 0.2 to 0.7 µM; effect on the synthesis of the arabinan domains of arabinogalactan (AG) and lipoarabinomannan (LAM) (M. tuberculosis H37Ra [7]): clear-cut effect; effects on the biosynthesis of fatty acids, mycolic acids and/or other lipids (M. tuberculosis H37Ra [7]): no effects; Range of MICs for multiple strains (M. smegmatis mc2 155): 0.4 µM; Range of MICs for multiple strains (M. tuberculosis H37Ra [8]): 0.2 µM; Range of MICs for multiple strains (M. tuberculosis H37Rv [9]): 0.2 µM; IC50 (in vitro): 50 µM; Range of MICs for multiple strains (C. striatum): 27 µM; MIC (BCG Wild Type; [14]): 0.25 µg/mL (≈ 0.724 µM); Range of MICs for multiple strains [12]: > 250 µM
Nc1cc(C(=O)NCCOCc2cccc(Cl)c2)cc([N+](=O)[O-])c1 [Compound 2] | > 20 | > 20 |  |  |  |  |  | 
NNC(=O)c1ccncc1 [Isoniazid] |  |  | 1.2 | 0.16 | 1.2 | 0.16 | >150 | differences in MIC between the two assays (broth and intracellular) [1]: No major differences
NCC[C@H](O)C(=O)N[C@@H]1C[C@H](N)[C@@H](O[C@H]2O[C@H](CN)[C@@H](O)[C@H](O)[C@H]2O)[C@H](O)[C@H]1O[C@H]1O[C@H](CO)[C@@H](O)[C@H](N)[C@H]1O [Amikacin] |  |  | > 150 | > 20 | 0.07 | 0.04 | >150 | 
CO[C@H]1/C=C/O[C@@]2(C)Oc3c(C)c(O)c4c(c3C2=O)C2=NC3(CCN(CC(C)C)CC3)NC2=C(NC(=O)/C(C)=C\C=C\[C@H](C)[C@H](O)[C@@H](C)[C@@H](O)[C@@H](C)[C@H](OC(C)=O)[C@@H]1C)C4=O [Rifabutin] |  |  | 0.11 | 0.1 | 0.01 | 0.01 | >20 | 
[H]/N=C(/N)N[C@H]1[C@H](O)[C@@H](O)[C@H](O[C@@H]2O[C@@H](C)[C@](O)(C=O)[C@H]2O[C@@H]2O[C@@H](CO)[C@H](O)[C@@H](O)[C@@H]2NC)[C@@H](N/C(N)=N\[H])[C@@H]1O [Streptomycin] |  |  | > 35 | > 20 | 1.5 | 0.9 | >35 | 
C[C@H]1COc2c(N3CCN(C)CC3)c(F)cc3c(=O)c(C(=O)O)cn1c23 [Levofloxacin] |  |  | > 20 | > 10 | 2.5 | 0.9 | >20 | 
NC(=O)c1cnccn1 [Pyrazinamide] |  |  | > 150 | > 20 | > 150 | > 20 | >150 | 
COC(=O)c1ccc(O[C@H]2CCN(C(=O)c3cc([N+](=O)[O-])cc([N+](=O)[O-])c3)C2)cc1 [Compound 11-(S)] | > 20 | 0.08 |  |  |  |  |  | 
O=C(NCCOCc1cccc(C(F)(F)F)c1)c1cc([N+](=O)[O-])cc([N+](=O)[O-])c1 [Compound 6] | 0.2 | 0.2 |  |  |  |  |  | 
CCc1cc(C(N)=S)ccn1 [Ethionamide] |  |  | 6 | 1 | 6 | 1 | 120 | differences in MIC between the two assays (broth and intracellular) [1]: No major differences
COc1ccc(O[C@H]2CCCN(C(=O)c3cc([N+](=O)[O-])cc([N+](=O)[O-])c3)C2)cc1 [Compound 12-(S)] | 20 | 6 |  |  |  |  |  | 
